Consider 19 compounds from publication PMC6070996 (Marine Drugs, 2018).

Assay [1] concerns the target human leukocyte elastase (HLE). The arrangement: method as in PMID 18924217. The conditions noted are these: activity of extracts; read-out: Enzyme Inhibition HLE IC50; cited from earlier work.
Another assay addresses T1, Thrombin (Bos taurus, UniProt P00735).
T1 construct: purchased Sigma-Aldrich T4648
Kind of assay: thrombin inhibition assay. The arrangement: key: - not active; */** small/medium activity; */** small/medium activity. The conditions noted are these: highest concentration 45.4 μg/mL. The class given is biochemical.

The target of assay [2] is T2, protein phosphatase 1 (PP1) (Oryctolagus cuniculus, UniProt P62139).
T2 construct: purchased England Biolabs, Hitchin, UK (New England Biolabs) 754S
T2 sequence (P62139 whole entry): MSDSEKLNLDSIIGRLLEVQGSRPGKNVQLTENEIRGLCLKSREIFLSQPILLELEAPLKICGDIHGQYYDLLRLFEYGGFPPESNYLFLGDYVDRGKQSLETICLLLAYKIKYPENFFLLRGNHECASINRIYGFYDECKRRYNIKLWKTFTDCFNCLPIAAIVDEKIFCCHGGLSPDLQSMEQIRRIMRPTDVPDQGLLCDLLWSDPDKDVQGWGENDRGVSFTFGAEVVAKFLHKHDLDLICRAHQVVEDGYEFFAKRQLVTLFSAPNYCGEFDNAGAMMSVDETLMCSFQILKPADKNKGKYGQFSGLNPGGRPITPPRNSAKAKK
Kind of assay: protein phosphatase 1 inhibition assay. The class given is biochemical. The arrangement: key: - not active; */** small/medium activity; */** small/medium activity. The conditions noted are these: highest concentration 45.4 μg/mL.

Assay [3] has as its target T3, trypsin from porcine pancreas (Sus scrofa, UniProt P00761).
T3 construct: purchased Sigma-Aldrich T0303; host or cells: porcine pancreas
Kind of assay: trypsin inhibition assay. Also noted: key: - not active; */** small/medium activity; */** small/medium activity. The conditions noted are these: class symbols. The class given is biochemical.

In assay [4] the target is T4, elastase from porcine pancreas (Sus scrofa, UniProt P00772).
T4 construct: purchased Sigma-Aldrich E0258; host or cells: porcine pancreas
T4 sequence (P00772 27-266): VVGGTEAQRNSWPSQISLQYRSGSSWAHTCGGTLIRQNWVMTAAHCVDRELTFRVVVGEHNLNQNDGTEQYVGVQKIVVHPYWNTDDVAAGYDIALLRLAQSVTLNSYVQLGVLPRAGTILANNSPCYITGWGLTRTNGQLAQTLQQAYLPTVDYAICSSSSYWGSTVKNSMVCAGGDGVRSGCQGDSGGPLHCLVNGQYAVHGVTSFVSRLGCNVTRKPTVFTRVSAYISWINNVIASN
Briefly: elastase inhibition assay. The class given is biochemical. The arrangement: key: - not active; */** small/medium activity; */** small/medium activity. The conditions noted are these: highest concentration 45.4 μg/mL.

In assay [5] the target is α-chymotrypsin from bovine pancreas (Bos taurus, UniProt P00766). Kind of assay: chymotrypsin inhibition assay. The arrangement: key to Enzyme Inhibition Chymotrypsin (activity class): - not active; */** small/medium activity; */** small/medium activity. The class given is biochemical. The conditions noted are these: class symbols.
A further assay relates to Chymotrypsin. To be noted: read-out: Enzyme Inhibition Chymotrypsin IC50; cited from earlier work.

T3 sequence (P00761 9-231): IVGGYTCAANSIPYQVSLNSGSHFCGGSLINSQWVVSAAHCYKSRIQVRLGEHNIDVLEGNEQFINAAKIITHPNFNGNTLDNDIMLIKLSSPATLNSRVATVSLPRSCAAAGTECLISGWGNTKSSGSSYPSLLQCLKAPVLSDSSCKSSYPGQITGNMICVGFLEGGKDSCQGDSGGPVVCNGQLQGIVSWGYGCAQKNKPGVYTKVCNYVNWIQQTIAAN

As usually defined, the IC50 is the concentration that gives 50% inhibition. For the compound “[Thr+Hph+Ahp+Thr+MeTyr+Ile]Ser+Pro+BA [Insulapeptolide H]”, the IC50 in assay [1] is 2700 nM.
Turning to “[Hmp+Leu+Ahp+Ile+MeTyr+Val]Cit+Ac [Insulapeptolide A]”, the IC50 in assay [1] was 140 nM.
Turning to “[Thr+Hph+Ahp+Thr+MeTyr+Ile]Ser+Pro+BA [Insulapeptolide E]”, the IC50 in assay [1] is 3200 nM.
Take “[Hmp+Leu+Ahp+Leu+MeTyr+Ile]Cit+Ac [Insulapeptolide B]”: in assay [1], the IC50 is 100 nM.
For the compound `CC[C@H](C)[C@H]1C(=O)N(C)[C@@H](Cc2ccc(OC)cc2)C(=O)N[C@@H](C(C)C)C(=O)O[C@@H]2[C@H](C)CN(C(=O)[C@H](CCCNC(N)=O)NC(C)=O)[C@@H]2C(=O)N[C@@H](CC(C)C)C(=O)N[C@H]2CC[C@@H](O)N1C2=O` [Insulapeptolide C, [Hmp+Leu+Ahp+Ile+diMeTyr+Val]Cit+Ac], in assay [1], the half-inhibitory concentration (IC50) was 90 nM.
Regarding `CCCCCC(=O)N[C@@H](CC(=O)O)C(=O)N[C@@H]1C(=O)N[C@@H](CCCNC(=N)N)C(=O)N[C@H]2CC[C@@H](O)N(C2=O)[C@@H](Cc2ccccc2)C(=O)N(C)[C@@H](Cc2ccccc2)C(=O)N[C@@H](C(C)C)C(=O)O[C@@H]1C` [CP 990, [Thr+Arg+Ahp+Phe+MePhe+Val]Asp+HA], the “Enzyme Inhibition Thrombin (activity class)” value (shortened to “Enzyme Inhibition Thrombin”) at Thrombin is “-”. Besides, the “Enzyme Inhibition Protein Phosphatase 1 (activity class)” value in assay [2] is “-”. In addition, the “Enzyme Inhibition Trypsin (activity class)” value (“Enzyme Inhibition Trypsin” below) in assay [3] is given as “**”. For the same compound, in assay [4], the “Enzyme Inhibition Elastase (activity class)” value (shortened to “Enzyme Inhibition Elastase”) is on record as “-”. Further, the “Enzyme Inhibition Chymotrypsin (activity class)” value (from here on “Enzyme Inhibition Chymotrypsin”) in assay [5] is “-”.
For `CCCCCC(=O)N[C@@H](CC(=O)O)C(=O)N[C@@H]1C(=O)N[C@@H](CCCNC(=N)N)C(=O)N[C@H]2CC[C@@H](O)N(C2=O)[C@@H](Cc2ccccc2)C(=O)N(C)[C@@H](Cc2ccc(O)cc2)C(=O)N[C@@H](C(C)C)C(=O)O[C@@H]1C` [CP 1006, [Thr+Arg+Ahp+Phe+MeTyr+Val]Asp+HA], the “Enzyme Inhibition Thrombin” value on Thrombin was “-”. Moreover, the “Enzyme Inhibition Protein Phosphatase 1 (activity class)” value in assay [2] is reported as “-”. In addition, the “Enzyme Inhibition Trypsin” value in assay [3] was “**”. Further, in assay [4], the “Enzyme Inhibition Elastase” value is given as “-”. In addition, the “Enzyme Inhibition Chymotrypsin” value in assay [5] is reported as “*”.
Turning to `CCCCCCCC(=O)N[C@@H](CC(=O)O)C(=O)N[C@@H]1C(=O)N[C@@H](CCCNC(=N)N)C(=O)N[C@H]2CC[C@@H](O)N(C2=O)[C@@H](Cc2ccccc2)C(=O)N(C)[C@@H](Cc2ccccc2)C(=O)N[C@@H](C(C)C)C(=O)O[C@@H]1C` [CP 1018, [Thr+Arg+Ahp+Phe+MePhe+Val]Asp+OA], on Thrombin, the “Enzyme Inhibition Thrombin” value is listed as “-”. Further, the “Enzyme Inhibition Protein Phosphatase 1 (activity class)” value in assay [2] is recorded as “-”. Moreover, the “Enzyme Inhibition Elastase” value in assay [4] was “-”. Also, the “Enzyme Inhibition Chymotrypsin” value in assay [5] is listed as “-”.
On to `CCCC(=O)N[C@@H](CC(=O)O)C(=O)N[C@@H]1C(=O)N[C@@H](Cc2ccc(O)cc2)C(=O)N[C@H]2CC[C@@H](O)N(C2=O)[C@@H](Cc2ccccc2)C(=O)N(C)[C@@H](Cc2ccccc2)C(=O)N[C@@H](C(C)C)C(=O)O[C@@H]1C` [CP 969, [Thr+Tyr+Ahp+Phe+MePhe+Val]Asp+BA], for which the “Enzyme Inhibition Thrombin” value at Thrombin is recorded as “-”. Also, the “Enzyme Inhibition Protein Phosphatase 1 (activity class)” value in assay [2] is on record as “-”. The “Enzyme Inhibition Trypsin” value in assay [3] was “-”. In addition, the “Enzyme Inhibition Elastase” value in assay [4] is given as “-”. For the same compound, the “Enzyme Inhibition Chymotrypsin” value in assay [5] is listed as “**”.
On to `CCCC(=O)N[C@@H](CC(=O)O)C(=O)N[C@@H]1C(=O)N[C@@H](CCCNC(=N)N)C(=O)N[C@H]2CC[C@@H](O)N(C2=O)[C@@H](Cc2ccccc2)C(=O)N(C)[C@@H](CCc2ccc(O)cc2)C(=O)N[C@@H](C(C)C)C(=O)O[C@@H]1C` [CP 992, [Thr+Arg+Ahp+Phe+MeHty+Val]Asp+BA], for which the “Enzyme Inhibition Thrombin” value on Thrombin was “-”. Moreover, in assay [2], the “Enzyme Inhibition Protein Phosphatase 1 (activity class)” value is reported as “-”. In addition, the “Enzyme Inhibition Elastase” value in assay [4] is recorded as “-”.
For `CC(=O)N[C@@H](CCC(N)=O)C(=O)N[C@@H]1C(=O)N[C@@H](CC(C)C)C(=O)N[C@H]2CC[C@@H](O)N(C2=O)[C@@H](Cc2ccccc2)C(=O)N(C)[C@@H](Cc2ccc(O)cc2)C(=O)N[C@@H](C(C)C)C(=O)O[C@@H]1C` [Nostopeptin BN920, [Thr+Leu+Ahp+Phe+MeTyr+Val]Gln+Ac], in the assay on Chymotrypsin, the IC50 is 110 nM.
Take `CCCCCCCC(=O)N[C@@H](CC(=O)O)C(=O)N[C@@H]1C(=O)N[C@@H](CCCNC(=N)N)C(=O)N[C@H]2CC[C@@H](O)N(C2=O)[C@@H](Cc2ccccc2)C(=O)N(C)[C@@H](CCc2ccc(O)cc2)C(=O)N[C@@H](C(C)C)C(=O)O[C@@H]1C` [CP 1048, [Thr+Arg+Ahp+Phe+MeHty+Val]Asp+OA]: the “Enzyme Inhibition Thrombin” value at Thrombin is listed as “-”. Besides, in assay [2], the “Enzyme Inhibition Protein Phosphatase 1 (activity class)” value was “-”. Also, the “Enzyme Inhibition Trypsin” value in assay [3] was “**”. In assay [4], the “Enzyme Inhibition Elastase” value is recorded as “-”. For the same compound, the “Enzyme Inhibition Chymotrypsin” value in assay [5] was “*”.
Take `CCCCCC(=O)N[C@@H](CC(=O)O)C(=O)N[C@@H]1C(=O)N[C@@H](Cc2ccc(O)cc2)C(=O)N[C@H]2CC[C@@H](O)N(C2=O)[C@@H](Cc2ccccc2)C(=O)N(C)[C@@H](Cc2ccc(O)cc2)C(=O)N[C@@H](C(C)C)C(=O)O[C@@H]1C` [CP 1013, [Thr+Tyr+Ahp+Phe+MeTyr+Val]Asp+HA]: the “Enzyme Inhibition Thrombin” value at Thrombin is recorded as “-”. Further, in assay [2], the “Enzyme Inhibition Protein Phosphatase 1 (activity class)” value is listed as “-”. Moreover, in assay [3], the “Enzyme Inhibition Trypsin” value is given as “-”. Also, the “Enzyme Inhibition Elastase” value in assay [4] is recorded as “-”. Moreover, the “Enzyme Inhibition Chymotrypsin” value in assay [5] was “**”.
Regarding `CCCC(=O)N[C@@H](CC(=O)O)C(=O)N[C@@H]1C(=O)N[C@@H](CCCNC(=N)N)C(=O)N[C@H]2CC[C@@H](O)N(C2=O)[C@@H](Cc2ccccc2)C(=O)N(C)[C@@H](Cc2ccc(O)cc2)C(=O)N[C@@H](C(C)C)C(=O)O[C@@H]1C` [CP 978, [Thr+Arg+Ahp+Phe+MeTyr+Val]Asp+BA], the “Enzyme Inhibition Thrombin” value at Thrombin is reported as “-”. Moreover, in assay [2], the “Enzyme Inhibition Protein Phosphatase 1 (activity class)” value is reported as “-”. In assay [4], the “Enzyme Inhibition Elastase” value was “-”.
On to `CCCC(=O)N[C@@H](CC(=O)O)C(=O)N[C@@H]1C(=O)N[C@@H](Cc2ccc(O)cc2)C(=O)N[C@H]2CC[C@@H](O)N(C2=O)[C@@H](Cc2ccccc2)C(=O)N(C)[C@@H](CCc2ccc(O)cc2)C(=O)N[C@@H](C(C)C)C(=O)O[C@@H]1C` [CP 999, [Thr+Tyr+Ahp+Phe+MeHty+Val]Asp+BA], for which the “Enzyme Inhibition Thrombin” value at Thrombin was “-”. Besides, in assay [2], the “Enzyme Inhibition Protein Phosphatase 1 (activity class)” value is “-”. The “Enzyme Inhibition Trypsin” value in assay [3] was “-”. Further, the “Enzyme Inhibition Chymotrypsin” value in assay [5] is “**”.
Regarding “[Thr+Hph+Ahp+Thr+MePhe+Val]Ser+Pro+BA [Insulapeptolide G]”, the IC50 in assay [1] was 3500 nM.
Turning to “[Thr+Hph+Ahp+Thr+MeTyr+Val]Ser+Pro+BA [Insulapeptolide F]”, the concentration for half-maximal inhibition (IC50) in assay [1] is 1600 nM.
As for `CCCCCC(=O)N[C@@H](CC(=O)O)C(=O)N[C@@H]1C(=O)N[C@@H](Cc2ccc(O)cc2)C(=O)N[C@H]2CC[C@@H](O)N(C2=O)[C@@H](Cc2ccccc2)C(=O)N(C)[C@@H](CCc2ccc(O)cc2)C(=O)N[C@@H](C(C)C)C(=O)O[C@@H]1C` [CP 1027, [Thr+Tyr+Ahp+Phe+MeHty+Val]Asp+HA], the “Enzyme Inhibition Thrombin” value at Thrombin was “-”. In addition, the “Enzyme Inhibition Protein Phosphatase 1 (activity class)” value in assay [2] is recorded as “-”. For the same compound, the “Enzyme Inhibition Trypsin” value in assay [3] is “-”. Moreover, the “Enzyme Inhibition Elastase” value in assay [4] was “-”.
“[Hmp+Leu+Ahp+Ile+diMeTyr+Ile]Cit+Ac [Insulapeptolide D]”: the concentration for half-maximal inhibition (IC50) in assay [1] is 85 nM.
